Results published in US20150157739A1, “Imidazo[2,1]thiazol-3-one derivatives” (Hoffmann-La Roche Inc., priority 2012, published 2015).

Key:
[1] = molecular target: T1, aggregated recombinant human-microtubule associated protein Tau (Homo sapiens, UniProt P10636); assay: Thiazin-red R displacement fluorescence assay on aggregated Tau; type: binding; details: displacement of Thiazin-red R from aggregated Tau; compound 0.3 nM to 10000 nM; 30 min room temperature; Ex 531 nm/Em 595 nm
T1 construct: Recombinant human-microtubule associated protein Tau purified from E. coli is aggregated at a concentration of 5 μM with Arachidonic Acid (100 μM) in Tris 10 mM pH8, 24 h at 37° C
T1 sequence (P10636 whole entry): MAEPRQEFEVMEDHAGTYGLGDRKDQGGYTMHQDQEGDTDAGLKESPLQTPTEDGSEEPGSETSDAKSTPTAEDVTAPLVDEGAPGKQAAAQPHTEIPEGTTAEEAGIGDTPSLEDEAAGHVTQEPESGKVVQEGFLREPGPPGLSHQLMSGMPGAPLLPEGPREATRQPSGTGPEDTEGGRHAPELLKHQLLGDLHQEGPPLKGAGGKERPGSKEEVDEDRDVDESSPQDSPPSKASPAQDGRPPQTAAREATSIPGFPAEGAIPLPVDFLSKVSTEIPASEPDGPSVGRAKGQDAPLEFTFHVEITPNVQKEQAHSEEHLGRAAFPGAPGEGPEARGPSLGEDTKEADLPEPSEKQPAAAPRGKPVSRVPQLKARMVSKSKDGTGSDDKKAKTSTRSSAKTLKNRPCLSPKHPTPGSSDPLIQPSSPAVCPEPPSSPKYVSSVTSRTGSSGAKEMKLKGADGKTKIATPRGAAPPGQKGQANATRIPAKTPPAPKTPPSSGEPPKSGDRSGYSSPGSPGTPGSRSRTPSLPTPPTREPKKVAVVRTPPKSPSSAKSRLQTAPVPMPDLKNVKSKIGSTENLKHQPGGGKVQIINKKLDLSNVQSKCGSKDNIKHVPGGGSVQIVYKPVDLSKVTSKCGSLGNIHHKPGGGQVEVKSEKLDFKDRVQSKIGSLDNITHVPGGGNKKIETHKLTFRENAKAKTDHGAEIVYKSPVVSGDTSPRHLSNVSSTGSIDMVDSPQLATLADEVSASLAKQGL

[2] = molecular target: T2, aggregated synthetic Aβ40 (Homo sapiens, UniProt P05067); assay: Thiazin-red R displacement fluorescence assay on aggregated A-beta; type: binding; details: displacement of Thiazin-red R from aggregated Aβ40; compound 0.3 nM to 10000 nM; 30 min room temperature; Ex 531 nm/Em 595 nm
T2 construct: Synthetic Aβ40 is aggregated at a concentration of 50 μM
T2 sequence (P05067 672-711 limits assumed): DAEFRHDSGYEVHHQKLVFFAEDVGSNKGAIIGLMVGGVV

IC50 [1] [nM] | IC50 [2] [nM] | Structure (SMILES)
0.8 | 1730 | COc1cc(/C=c2\sc3nc(-c4cc(Br)cc(C#N)c4)cn3c2=O)cc(Cl)c1O [Example 85, 3-Bromo-5-{2-[1-(3-chloro-4-hydroxy-5-methoxy-phenyl)-meth-(Z)-ylidene]-3-oxo-2,3-dihydro-imidazo[2,1-b]thiazol-6-yl}-benzonitrile]
1 | 1240 | COc1cc(/C=c2\sc3nc(-c4cccc(C(N)=O)c4)cn3c2=O)cc(Cl)c1O [Example 86, 3-{2-[1-(3-Chloro-4-hydroxy-5-methoxy-phenyl)-meth-(Z)-ylidene]-3-oxo-2,3-dihydro-imidazo[2,1-b]thiazol-6-yl}-benzamide]
0.3 | 6 | COc1cc(/C=c2\sc3nc(-c4ccc(C#N)cc4)cn3c2=O)cc(Cl)c1O [Example 87, 4-{2-[1-(3-Chloro-4-hydroxy-5-methoxy-phenyl)-meth-(Z)-ylidene]-3-oxo-2,3-dihydro-imidazo[2,1-b]thiazol-6-yl}-benzonitrile]
0.6 | 14 | COc1cc(/C=c2\sc3nc(-c4ccc(OC(F)F)cc4)cn3c2=O)cc(Cl)c1O [Example 88, 2-[1-(3-Chloro-4-hydroxy-5-methoxy-phenyl)-meth-(Z)-ylidene]-6-(4-(difluoromethoxy)phenyl)-imidazo[2,1-b]thiazol-3-one]
24 | 356 | COc1cc(/C=c2\sc3nc(-c4cccc(N5CCOCC5)c4)cn3c2=O)cc(Cl)c1O [Example 89, 2-[1-(3-Chloro-4-hydroxy-5-methoxy-phenyl)-meth-(Z)-ylidene]-6-(3-morpholinophenyl)-imidazo[2,1-b]thiazol-3-one]
37 | 16 | COc1cc(/C=c2\sc3nc(-c4ccc(N5CCCC5)cc4)cn3c2=O)cc(Cl)c1O [Example 90, 2-[1-(3-Chloro-4-hydroxy-5-methoxy-phenyl)-meth-(Z)-ylidene]-6-(4-(pyrrolidin-1-yl)phenyl)-imidazo[2,1-b]thiazol-3-one]
20 | 184 | CCN(CC)c1ccc(-c2cn3c(=O)/c(=C/c4cc(Cl)c(O)c(OC)c4)sc3n2)cc1 [Example 91, 2-[1-(3-Chloro-4-hydroxy-5-methoxy-phenyl)-meth-(Z)-ylidene]-6-(4-(diethylamino)phenyl)-imidazo[2,1-b]thiazol-3-one]
39 | 482 | COc1cc(/C=c2\sc3nc(-c4ccc(N5CCOCC5)cc4)cn3c2=O)cc(Cl)c1O [Example 92, 2-[1-(3-Chloro-4-hydroxy-5-methoxy-phenyl)-meth-(Z)-ylidene]-6-(4-morpholinophenyl)-imidazo[2,1-b]thiazol-3-one]
30 | 29 | COc1cc(/C=c2\sc3nc(-c4ccc(N(C)C)cc4)cn3c2=O)cc(Cl)c1O [Example 93, 2-[1-(3-Chloro-4-hydroxy-5-methoxy-phenyl)-meth-(Z)-ylidene]-6-(4-(dimethylamino)phenyl)-imidazo[2,1-b]thiazol-3-one]
42 | 3890 | COc1cc(/C=c2\sc3nc(-c4cccc(N5CCCC5=O)c4)cn3c2=O)cc(Cl)c1O [Example 94, 2-[1-(3-Chloro-4-hydroxy-5-methoxy-phenyl)-meth-(Z)-ylidene]-6-[3-(2-oxo-pyrrolidin-1-yl)-phenyl]-imidazo[2,1-b]thiazol-3-one]
28 | 2150 | COc1cc(/C=c2\sc3nc(-c4cccc(OCCOCCOCCF)c4)cn3c2=O)cc(Cl)c1O [Example 95, 2-[1-(3-Chloro-4-hydroxy-5-methoxy-phenyl)-meth-(Z)-ylidene]-6-(3-{2-[2-(2-fluoro-ethoxy)-ethoxy]-ethoxy}-phenyl)-imidazo[2,1-b]thiazol-3-one]
21 | 1850 | COc1cc(/C=c2\sc3nc(-c4ccc(C(=O)O)cc4)cn3c2=O)cc(Cl)c1O [Example 98, 4-{2-[1-(3-Chloro-4-hydroxy-5-methoxy-phenyl)-meth-(Z)-ylidene]-3-oxo-2,3-dihydro-imidazo[2,1-b]thiazol-6-yl}-benzoic acid]
14 | 325 | COc1ccc(-c2cn3c(=O)/c(=C/c4cc(Cl)c(O)c(OC)c4)sc3n2)cc1OC [Example 99, 2-[1-(3-Chloro-4-hydroxy-5-methoxy-phenyl)-meth-(Z)-ylidene]-6-(3,4-dimethoxy-phenyl)-imidazo[2,1-b]thiazol-3-one]
9 | 1060 | COc1cc(/C=c2\sc3nc(-c4ccc5c(c4)OCCO5)cn3c2=O)cc(Cl)c1O [Example 100, 2-[1-(3-Chloro-4-hydroxy-5-methoxy-phenyl)-meth-(Z)-ylidene]-6-(2,3-dihydro-benzo[1,4]dioxin-6-yl)-imidazo[2,1-b]thiazol-3-one]
2 | 792 | COc1cc(/C=c2\sc3nc(-c4ccc(C(N)=O)cc4)cn3c2=O)cc(Cl)c1O [Example 101, 4-{2-[1-(3-Chloro-4-hydroxy-5-methoxy-phenyl)-meth-(Z)-ylidene]-3-oxo-2,3-dihydro-imidazo[2,1-b]thiazol-6-yl}-benzamide]
12 | 226 | COc1cc(/C=c2\sc3nc(-c4ccc5c(c4)CC(=O)N5)cn3c2=O)cc(Cl)c1O [Example 102, 5-{2-[1-(3-Chloro-4-hydroxy-5-methoxy-phenyl)-meth-(Z)-ylidene]-3-oxo-2,3-dihydro-imidazo[2,1-b]thiazol-6-yl}-1,3-dihydro-indol-2-one]
24 | 1160 | COc1cc(/C=c2\sc3nc(-c4ccc(NC(C)=O)cc4)cn3c2=O)cc(Cl)c1O [Example 103, N-(4-{2-[1-(3-Chloro-4-hydroxy-5-methoxy-phenyl)-meth-(Z)-ylidene]-3-oxo-2,3-dihydro-imidazo[2,1-b]thiazol-6-yl}-phenyl)-acetamide]
19 | > 10000 | COc1cc(/C=c2\sc3nc(-c4cccc(C(=O)O)c4)cn3c2=O)cc(Cl)c1O [Example 104, 3-{2-[1-(3-Chloro-4-hydroxy-5-methoxy-phenyl)-meth-(Z)-ylidene]-3-oxo-2,3-dihydro-imidazo[2,1-b]thiazol-6-yl}-benzoic acid]
13 | 5550 | COc1cc(/C=c2\sc3nc(-c4c(F)cccc4F)cn3c2=O)cc(Cl)c1O [Example 105, 2-[1-(3-Chloro-4-hydroxy-5-methoxy-phenyl)-meth-(Z)-ylidene]-6-(2,6-difluoro-phenyl)-imidazo[2,1-b]thiazol-3-one]
8 | 1080 | COc1cc(/C=c2\sc3nc(-c4cccc(C(=O)NCCF)c4)cn3c2=O)cc(Cl)c1O [Example 106, 3-{2-[1-(3-Chloro-4-hydroxy-5-methoxy-phenyl)-meth-(Z)-ylidene]-3-oxo-2,3-dihydro-imidazo[2,1-b]thiazol-6-yl}-N-(2-fluoro-ethyl)-benzamide]
3 | 2630 | CCCNC(=O)c1cccc(-c2cn3c(=O)/c(=C/c4cc(Cl)c(O)c(OC)c4)sc3n2)c1 [Example 107, 3-{2-[1-(3-Chloro-4-hydroxy-5-methoxy-phenyl)-meth-(Z)-ylidene]-3-oxo-2,3-dihydro-imidazo[2,1-b]thiazol-6-yl}-N-propyl-benzamide]
